Data reported in patent US6984649B1, “Pyridine derivatives” (Bayer Aktiengesellschaft, priority 2000, dated 2006).
pIC50: −log10 of the molar value.

Molecular target: T1, human IKK-β (Homo sapiens, UniProt O14920)
T1 construct: A cDNA fragment encoding human IKK-β open reading frame was generated by PCR; His tag (from pcDNA3.1/His C); made in house; host or cells: Sf21 insect cells (baculovirus); substrate made in E. coli
T1 sequence (O14920 1-756): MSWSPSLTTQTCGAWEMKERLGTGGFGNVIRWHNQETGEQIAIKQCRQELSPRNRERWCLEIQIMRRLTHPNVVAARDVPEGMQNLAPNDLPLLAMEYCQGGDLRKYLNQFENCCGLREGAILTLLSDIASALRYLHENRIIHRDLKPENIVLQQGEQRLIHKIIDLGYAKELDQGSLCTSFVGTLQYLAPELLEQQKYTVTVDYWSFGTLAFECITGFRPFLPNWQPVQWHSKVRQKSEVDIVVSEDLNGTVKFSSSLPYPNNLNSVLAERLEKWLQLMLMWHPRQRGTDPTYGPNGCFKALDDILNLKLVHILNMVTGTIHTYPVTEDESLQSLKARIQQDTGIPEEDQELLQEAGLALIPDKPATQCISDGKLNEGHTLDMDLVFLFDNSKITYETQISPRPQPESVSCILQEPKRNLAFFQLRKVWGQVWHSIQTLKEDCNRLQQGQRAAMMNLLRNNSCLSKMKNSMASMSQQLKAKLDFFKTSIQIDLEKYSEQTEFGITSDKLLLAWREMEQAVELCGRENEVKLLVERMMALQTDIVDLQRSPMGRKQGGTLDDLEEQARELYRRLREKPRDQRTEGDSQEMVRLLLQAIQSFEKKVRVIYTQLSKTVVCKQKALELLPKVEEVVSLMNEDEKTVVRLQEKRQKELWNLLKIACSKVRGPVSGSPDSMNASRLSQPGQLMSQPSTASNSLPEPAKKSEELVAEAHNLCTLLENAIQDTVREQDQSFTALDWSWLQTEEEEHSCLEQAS
Assay: IKK-β kinase inhibitory assay
Assay type: biochemical
Settings: compounds as yielded by solid phase synthesis, purity about 40 to 90%, read-out: In vitro activity grade (In vitro IC50)
In short: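 Radiometric read-out: streptavidin capture of 33P-labelled bio-GST-IκBα(1-54), 0.2 μM, after a 2 h room-temperature reaction started with ATP/[γ-33P]ATP. Enzyme was recombinant His-tagged human IKK-β expressed in Sf21 insect cells, used at 0.6 μg/ml in Tris-HCl pH 7.6/MgCl2 kinase buffer. Compounds added in 2.5% DMSO.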

With `O=c1[nH]c2nc(-c3c(O)cccc3OCC3CC3)cc(C3CCCNC3)c2cc1[N+](=O)[O-]` (centres unmarked) [Example 25-05] as the molecule, how does the pIC50 read?
The pIC50 was over 6.30.

How did the pIC50 turn out when `N#Cc1cc2c(C3CCCNC3)cc(-c3c(O)cccc3OCC3CC3)nc2[nH]c1=O` (centres unmarked) [Example 25-06] was run?
Its pIC50 is over 6.30.

How did the pIC50 turn out when `O=c1[nH]c2nc(-c3c(O)cccc3OCC3CC3)cc(C3CCCNC3)c2cc1S(=O)(=O)c1ccccc1` (centres unmarked) [Example 25-07] was run?
The pIC50 was over 6.30.

With `NC(=O)c1cc2c(C3CCCNC3)cc(-c3c(O)cccc3OCC3CC3)nc2[nH]c1=O` (centres unmarked) [Example 25-08] as the molecule, how does the pIC50 read?
The pIC50 was over 6.30.

`CCOC(=O)C1Cc2c(C3CCCNC3)cc(-c3c(O)cccc3OCC3CC3)nc2NC1=O` (centres unmarked) [Example 26-03] was tested. Which pIC50 did it give?
The pIC50 was over 6.30.

With `CCOC(=O)C1Cc2c(C3CCNCC3)cc(-c3c(O)cccc3OCC3CC3)nc2NC1=O` (centres unmarked) [Example 26-04] as the molecule, how does the pIC50 read?
Its pIC50 is over 6.30.

How did the pIC50 turn out when `NC(=O)C1Cc2c(C3CCCNC3)cc(-c3c(O)cccc3OCC3CC3)nc2NC1=O` (centres unmarked) [Example 26-05] was run?
Its pIC50 is over 6.30.

With `CCCOc1cccc(O)c1-c1cc(C2CCCNC2)c2c(n1)NC(=O)C(C(=O)OCC)C2` (centres unmarked) [Example 26-06] as the molecule, how does the pIC50 read?
The pIC50 was over 6.30.

With `CCCOc1cccc(O)c1-c1cc(C2CCCNC2)c2c(n1)NC(=O)CC2` (centres unmarked) [Example 27-02] as the molecule, how does the pIC50 read?
The pIC50 was over 6.30.

With `O=C1CCc2c(C3CCCNC3)cc(-c3c(O)cccc3OCC3CC3)nc2N1` (centres unmarked) [Example 27-03, 7-[2-(cyclopropylmethoxy)-6-hydroxyphenyl]-5-(3-piperidinyl)-3,4-dihydro-1,8-naphthyridin-2(1H)-one] as the molecule, how does the pIC50 read?
Its pIC50 is over 6.30.

With `O=C1CCc2c(C3CCNCC3)cc(-c3c(O)cccc3OCC3CC3)nc2N1` [Example 27-04] as the molecule, how does the pIC50 read?
Its pIC50 is over 6.30.

How did the pIC50 turn out when `CCCOc1cccc(O)c1-c1cc(C2CCNCC2)c2c(n1)NC(=O)CC2` [Example 27-05] was run?
The pIC50 was over 6.30.

`CNC(=O)c1cc2c(C3CCCNC3)cc(-c3c(O)cccc3OCC3CC3)nc2[nH]c1=O` (centres unmarked) [Example 31-03] was tested. Which pIC50 did it give?
The pIC50 was over 6.30.

How did the pIC50 turn out when `CN(C)C(=O)c1cc2c(C3CCCNC3)cc(-c3c(O)cccc3OCC3CC3)nc2[nH]c1=O` (centres unmarked) [Example 31-04] was run?
Its pIC50 is over 6.30.

With `O=C(c1cc2c(C3CCCNC3)cc(-c3c(O)cccc3OCC3CC3)nc2[nH]c1=O)N1CCCC1` (centres unmarked) [Example 31-05] as the molecule, how does the pIC50 read?
The pIC50 was over 6.30.

`O=C(NCc1ccccc1)c1cc2c(C3CCCNC3)cc(-c3c(O)cccc3OCC3CC3)nc2[nH]c1=O` (centres unmarked) [Example 31-06] was tested. Which pIC50 did it give?
Its pIC50 is over 6.30.

With `COCCNC(=O)c1cc2c(C3CCCNC3)cc(-c3c(O)cccc3OCC3CC3)nc2[nH]c1=O` (centres unmarked) [Example 31-07] as the molecule, how does the pIC50 read?
Its pIC50 is over 6.30.

With `O=C(c1cc2c(C3CCCNC3)cc(-c3c(O)cccc3OCC3CC3)nc2[nH]c1=O)N1CCOCC1` (centres unmarked) [Example 31-08] as the molecule, how does the pIC50 read?
The pIC50 was over 6.30.

How did the pIC50 turn out when `O=C(c1cc2c(C3CCCNC3)cc(-c3c(O)cccc3OCC3CC3)nc2[nH]c1=O)N1CCNCC1` (centres unmarked) [Example 31-09] was run?
Its pIC50 is over 6.30.

How did the pIC50 turn out when `CC(C)NC(=O)c1cc2c(C3CCCNC3)cc(-c3c(O)cccc3OCC3CC3)nc2[nH]c1=O` (centres unmarked) [Example 31-10] was run?
The pIC50 was over 6.30.

How did the pIC50 turn out when `CN(C)CCNC(=O)c1cc2c(C3CCCNC3)cc(-c3c(O)cccc3OCC3CC3)nc2[nH]c1=O` (centres unmarked) [Example 31-11] was run?
Its pIC50 is over 6.30.

How did the pIC50 turn out when `O=C(NC1Cc2ccccc2C1)c1cc2c(C3CCCNC3)cc(-c3c(O)cccc3OCC3CC3)nc2[nH]c1=O` (centres unmarked) [Example 31-12] was run?
Its pIC50 is over 6.30.

How did the pIC50 turn out when `O=C(NC(c1ccccc1)c1ccccc1)c1cc2c(C3CCCNC3)cc(-c3c(O)cccc3OCC3CC3)nc2[nH]c1=O` (centres unmarked) [Example 31-13] was run?
Its pIC50 is over 6.30.

With `C[C@H](NC(=O)c1cc2c(C3CCCNC3)cc(-c3c(O)cccc3OCC3CC3)nc2[nH]c1=O)c1ccccc1` (some centres unmarked) [Example 31-14] as the molecule, how does the pIC50 read?
Its pIC50 is over 6.30.

How did the pIC50 turn out when `C[C@@H](NC(=O)c1cc2c(C3CCCNC3)cc(-c3c(O)cccc3OCC3CC3)nc2[nH]c1=O)c1ccccc1` (some centres unmarked) [Example 31-15] was run?
Its pIC50 is over 6.30.

With `C[C@H](NC(=O)c1cc2c(C3CCCNC3)cc(-c3c(O)cccc3OCC3CC3)nc2[nH]c1=O)C(=O)O` (some centres unmarked) [Example 31-16] as the molecule, how does the pIC50 read?
The pIC50 was over 6.30.

With `O=C(NCCc1ccccc1)c1cc2c(C3CCCNC3)cc(-c3c(O)cccc3OCC3CC3)nc2[nH]c1=O` (centres unmarked) [Example 31-17] as the molecule, how does the pIC50 read?
Its pIC50 is over 6.30.

How did the pIC50 turn out when `O=C(NC1CCCCC1)c1cc2c(C3CCCNC3)cc(-c3c(O)cccc3OCC3CC3)nc2[nH]c1=O` (centres unmarked) [Example 31-18] was run?
The pIC50 was over 6.30.

`O=C(NCC1CCCCC1)c1cc2c(C3CCCNC3)cc(-c3c(O)cccc3OCC3CC3)nc2[nH]c1=O` (centres unmarked) [Example 31-19] was tested. Which pIC50 did it give?
Its pIC50 is over 6.30.

`O=C(NCCO)c1cc2c(C3CCCNC3)cc(-c3c(O)cccc3OCC3CC3)nc2[nH]c1=O` (centres unmarked) [Example 31-20] was tested. Which pIC50 did it give?
Its pIC50 is over 6.30.

`O=C(NC1CC1)c1cc2c(C3CCCNC3)cc(-c3c(O)cccc3OCC3CC3)nc2[nH]c1=O` (centres unmarked) [Example 31-21] was tested. Which pIC50 did it give?
Its pIC50 is over 6.30.

`O=C(NC1CCC1)c1cc2c(C3CCCNC3)cc(-c3c(O)cccc3OCC3CC3)nc2[nH]c1=O` (centres unmarked) [Example 31-22] was tested. Which pIC50 did it give?
The pIC50 was over 6.30.

`O=C(NC1CCCC1)c1cc2c(C3CCCNC3)cc(-c3c(O)cccc3OCC3CC3)nc2[nH]c1=O` (centres unmarked) [Example 31-23] was tested. Which pIC50 did it give?
The pIC50 was over 6.30.

With `O=C(NC1CCCCCC1)c1cc2c(C3CCCNC3)cc(-c3c(O)cccc3OCC3CC3)nc2[nH]c1=O` (centres unmarked) [Example 31-24] as the molecule, how does the pIC50 read?
The pIC50 was over 6.30.

How did the pIC50 turn out when `CCC(CC)NC(=O)c1cc2c(C3CCCNC3)cc(-c3c(O)cccc3OCC3CC3)nc2[nH]c1=O` (centres unmarked) [Example 31-25] was run?
Its pIC50 is over 6.30.

`CCCC(CCC)NC(=O)c1cc2c(C3CCCNC3)cc(-c3c(O)cccc3OCC3CC3)nc2[nH]c1=O` (centres unmarked) [Example 31-26] was tested. Which pIC50 did it give?
Its pIC50 is over 6.30.

`O=C(NCC(F)(F)F)c1cc2c(C3CCCNC3)cc(-c3c(O)cccc3OCC3CC3)nc2[nH]c1=O` (centres unmarked) [Example 31-27] was tested. Which pIC50 did it give?
Its pIC50 is over 6.30.

With `N#Cc1c(N2CCCC(C(N)=O)C2)cc(-c2ccccc2O)nc1N` (centres unmarked) [Example 34-06] as the molecule, how does the pIC50 read?
Its pIC50 is 5.00 to 5.70.

How did the pIC50 turn out when `N#Cc1c(NC2CCNCC2)cc(-c2ccccc2O)nc1N` [Example 34-07] was run?
Its pIC50 is over 6.30.

How did the pIC50 turn out when `N#Cc1c(N2CCCNCC2)cc(-c2ccccc2O)nc1N` [Example 34-08] was run?
Its pIC50 is 5.70 to 6.30.

`N#Cc1c(N2CCNCC2)cc(-c2ccccc2O)nc1N` [Example 34-09] was tested. Which pIC50 did it give?
The pIC50 was over 6.30.

`N#Cc1c(NCCN)cc(-c2ccccc2O)nc1N` [Example 34-10] was tested. Which pIC50 did it give?
Its pIC50 is over 6.30.

With `N#Cc1c(NCCCN)cc(-c2ccccc2O)nc1N` [Example 34-11] as the molecule, how does the pIC50 read?
The pIC50 was over 6.30.

With `CNCCNc1cc(-c2ccccc2O)nc(N)c1C#N` [Example 34-12] as the molecule, how does the pIC50 read?
Its pIC50 is over 6.30.

How did the pIC50 turn out when `N#Cc1c(NCCNCc2ccccc2)cc(-c2ccccc2O)nc1N` [Example 34-13] was run?
The pIC50 was over 6.30.

How did the pIC50 turn out when `N#Cc1c(NCCNCc2ccccc2)cc(-c2c(O)cccc2OCC2CC2)nc1N` [Example 34-15] was run?
The pIC50 was over 6.30.

With `N#Cc1c(NCCNC(=O)c2ccccc2)cc(-c2c(O)cccc2OCC2CC2)nc1N` [Example 34-16] as the molecule, how does the pIC50 read?
Its pIC50 is over 6.30.

How did the pIC50 turn out when `N#Cc1c(NCCNS(=O)(=O)c2ccccc2)cc(-c2c(O)cccc2OCC2CC2)nc1N` [Example 34-17] was run?
Its pIC50 is over 6.30.

With `N#Cc1c(NCCNC(=O)Nc2ccccc2)cc(-c2c(O)cccc2OCC2CC2)nc1N` [Example 34-18] as the molecule, how does the pIC50 read?
Its pIC50 is over 6.30.

`CC(=O)NCCNc1cc(-c2c(O)cccc2OCC2CC2)nc(N)c1C#N` [Example 34-19] was tested. Which pIC50 did it give?
The pIC50 was over 6.30.
